Reference: patent US20150064221A1, “COMPOUNDS HAVING IMMUNOMUDULATOR ACTIVITY” (priority 2012, published 2015)

Test system: Purified CD4 T cells
Assay: Th17 T cell development from purified CD4 T cells
Assay type: cell-based
Settings: 10 mM
Description: Purified CD4 T cells (CD3^+ CD4^+ CD45RA^+ CD25^− HLA−DR^−) were incubated with 10 μg/ml of IL-2, 10 ng/mL of IL-1β, 10 ng/ml of IL-23, 1 ug/ml of anti-IL-4, 1 ug/mL of anti-IFNγ and anti-CD3/CD28 activation beads at a ratio of 1 bead per cell plus TGF-β (1 ng/mL). On day 6, the cells were incubated in the presence of 50 ng/ml of PMA and 500 ng/ml of ionomycin for 5 hours. The cells were analyzed for intracellular staining of IL-17A and IFNγ. (A) FACS analysis of CD4+ and IL-17+ cells with the percentage shown in the upper right quadrant. (B) Mean Fluorescent Intensity (MFI) of IL-17+ T cells. (C) Concentration of IL-17 in the media. VGX-1027 concentration was 10 mM.
Although inhibition of Th17-promoting cytokine production from DCs is likely to contribute to the decrease of Th17 T cell development, the potential limitation with this mechanism is that other cells may be compensating for the production of Th17-promoting cytokines. Therefore, the direct effect of VGX-1027 was tested on the differentiation of naïve CD4 T cells into Th17 T cells. In vitro generation of Th17 T cells requires TGF-β, IL-1β, IL-6, and either IL-21 or IL-23. Th17 T cells was assessed with purified CD4 T cells (CD3+ CD4+ CD45RA+ CD25− HLA−DR−) with or without VGX-1027.

O=C(O)CC1CC(c2ccccc2)=NO1 (centres unmarked) [VGX-1027, 3-phenyl-4,5-dihydro-5-isoxazoleacetic acid]
IL-17 expressed in a Th17 T cell (MFI): decrease
IL-17 in the culture media: decrease
